Values quoted from earlier work as cited in patent US20260258420A1, “COMPOSITIONS AND METHODS FOR THE TREATMENT OF HUMAN PAPILLOMAVIRUS-DRIVEN CANCERS” (priority 2023, published 2026).

Tests used:
[1] = test system: SiHa; conditions: cited from earlier work
[2] = test system: ME180; conditions: cited from earlier work
[3] = test system: CaSki; conditions: cited from earlier work
[4] = test system: Vu147T; conditions: cited from earlier work
[5] = test system: UPCI-SCC-090; conditions: cited from earlier work
[6] = test system: UDSCC2; conditions: cited from earlier work
[7] = HNSCC patients who received 100 mg/m^2; read-out: plasma Cmax; cited from earlier work

For `N.N.[Cl][Pt][Cl]` [cisplatin], the IC50 [1] is given as 28 µM, the IC50 [2] is given as 12 µM and the IC50 [3] is given as 15 µM. For the same molecule, the IC50 [4] was 11.2 µM, the IC50 [5] was 11.1 µM and the IC50 [6] was 18 µM. For the same molecule, the Cmax [7] was 11 µM.
